How the values were obtained:
[1] = Solubility of C11AG salts in potassium phosphate buffer (crystal formation by microscope); conditions: for Crystals: pH 7.4, 4 mM C11AG salt
[2] = Solubility of C11AG salts in water
[3] = molecular target: neutral sphingomyelinase from Bacillus cereus (Bacillus cereus, UniProt P11889); test: biochemical; conditions: pH 7.2, 37° C., 24 h
Procedure: Paranitrophenylphosphoryl-choline was dissolved to a final concentration of 1 mg/ml in 0.1 M Tris at pH 7.2 and 10 mM […]. […] The optical density is a measure for the quantity of cleaved substrate. Dose-effect curves were used to determine the concentration at which the enzyme activity is inhibited by 50% (IC50).

[4] = tested on: nude mice (strain: Swiss, Nu/Nu); test: Physiological tolerability after subcutaneous application (tissue damage after 24 h)
Procedure: Aliquots of 0.1 ml each were administered to 3 nude mice (strain: Swiss, Nu/Nu) by subcutaneous application. After 24 h, the degree of tissue damage was recorded. The results are shown in Table 4, in which no visible damage=−, reddening=+, edemas=++, and necroses=+++.

DSS induced colitis = test: DSS induced colitis, body weight loss; format: in vivo, mice (strain Balb C); conditions: in food equimolar to 0.5 mg C11AG/g
Source text: (§1) Female mice (strain Balb C, 9 weeks old) were obtained from Charles River and were kept under specific pathogen free conditions under an artificial day/night rhythm. Animals were fed with Altromin standard diet and received water ad libitum. Colitis was induced by addition of dextran sulfate (DSS) (MW 36,000–50,000, ICN, Aurora, Ohio, lot 2387F) to drinking water at a concentration of 7.5%. For C11AG treatment the free base of C11AG (lot 2-3-3) was used. Animals received Altromin powder food, mixed with 0.5 mg C11AG/g or with equimolar concentration of C11AG salt (i.e. 0.785 mg/g C11AG hexanate). As determined in calibration experiments Balb C mice (8–12 weeks old) consume each day 150 g food/kg body weight. The corresponding daily doses of C11AG were therefore: 75 and […]. Body weight loss is one of the most evident symptoms of DSS induced colitis. Mean body weight was determined every day for each group and the weight loss was calculated.
as §1, with “libitum.Colitis” for “libitum. Colitis”, “Animals received Altromin powder food, mixed with 0.5 mg C11AG/g or with equimolar concentration of C11AG salt (i.e. 0.785 mg/g C11AG hexanate).” left out, “calculated. Mean weight loss was added over a period of eleven days.” for “calculated.”

[5] = IC50, paranitrophenylphosphoryl-choline substrate
[6] = paranitrophenylphosphoryl-choline substrate
[7] = Example 10, mean weight loss added over eleven days, FIG. 3

neutral sphingomyelinase from Bacillus cereus, sequence (P11889 28-333): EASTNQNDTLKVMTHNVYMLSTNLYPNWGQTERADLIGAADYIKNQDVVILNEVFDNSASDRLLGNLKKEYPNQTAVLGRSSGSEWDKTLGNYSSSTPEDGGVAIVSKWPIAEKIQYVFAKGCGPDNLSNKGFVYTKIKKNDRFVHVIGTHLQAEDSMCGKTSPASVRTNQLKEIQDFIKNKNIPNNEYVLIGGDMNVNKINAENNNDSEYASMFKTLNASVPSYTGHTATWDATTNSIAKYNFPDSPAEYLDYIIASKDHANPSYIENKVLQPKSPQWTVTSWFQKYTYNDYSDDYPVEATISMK

Molecule | Crystals ([1]; phosphate 1 mM–1,000 mM) | Solubility in water [2] [µg/mL] | IC50 [3, 6] [µg/mL] | Protection from DSS induced weight loss as compared to the free base (DSS induced colitis; [7]) | further results
CCCCCCCCCCC=NNC(=N)N [Oenanthate, undecylideneaminoguanidine oenanthate] | no | >10000 |  |  | IC50 [3, 5]: 3.31 µM
undecylideneaminoguanidine pelargonate | no | >10000 | 0.95 |  | 
CC(O)C(=O)O.CCCCCCCCCCC=NNC(=N)N [Lactate, undecylideneaminoguanidine lactate] |  |  | 0.9 |  | Crystals ([1]; phosphate 1 mM): no; Crystals ([1]; phosphate 10 mM–1,000 mM): yes
Undecylenate |  | 100 |  |  | 
CCCCCCCCCCC=NNC(=N)N [Chloride, reference compound] | yes |  |  |  | solubility ([2]; water): > 10000 µg/mL; IC50 [3, 5]: 3.53 µM; lowest concentration leading to reddening and edemas ([4]; Swiss Nu/Nu (nude), mouse, in vivo, sc, 24 h): 20 mM
CC(=O)O.CCCCCCCCCCC=NNC(=N)N [Acetate, undecylideneaminoguanidine acetate] |  | >10000 | 0.85 |  | Crystals ([1]; phosphate 1 mM): no; Crystals ([1]; phosphate 10 mM–1,000 mM): yes; phosphate concentration at which the salt precipitates (forms insoluble phosphates) ([1]; potassium phosphate buffer pH 7.4, 4 mM C11AG salt): 10 mM; concentration up to which well-tolerated / no damage ([4]; 0.1 ml subcutaneous, nude mice, after 24 h): 20000 µM
undecylideneaminoguanidine hexanoate [hexanoic acid salt of C11AG] |  |  |  | more pronounced | Protection from DSS induced weight loss as compared to the free base (DSS induced colitis; Example 9, mean weight loss per day, FIG. 2): more pronounced
Dodecylphosphonate |  | 100 |  |  | 
undecylideneaminoguanidine decanoate [Decanate] |  |  |  | more pronounced | 
undecylideneaminoguanidine octanoate [octanoic acid salt of C11AG] |  |  |  | more pronounced | 
